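1) Cells in 96-well plates. 2) Compound, 48 h, 5 concentrations. 3) Linear interpolation between surrounding doses. 4) Unreached endpoint = highest concentration. TGI is the concentration that stops growth completely.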
Columns and labels:
Experiment in all cases: growth of human tumour cells (NCI), 48 h
[1] = system: UACC-62 melanoma
[2] = system: M14 melanoma
[3] = system: CCRF-CEM leukemia
[4] = system: SF-539 CNS

Row | SMILES | TGI [1] [µM] | TGI [2] [µM] | TGI [3] [µM] | TGI [4] [µM]
1 | COc1c(O)cc(C(=O)O[C@@H]2Cc3c(O)cc(O)cc3O[C@@H]2c2cc(O)c(O)c(O)c2)cc1O | 78.4 | > 100 |  | 
2 | S=C1SC(c2ccc(Cl)cc2)(c2ccc(Cl)cc2)c2ccccc21 | > 100 | > 100 | > 100 | > 100
3 | Cc1cc(C#N)c(Nc2c(C)cccc2[N+](=O)[O-])s1 | > 100 | > 100 | 55 | > 100
4 | Cc1ccc(C)c(NC(=O)C(Cc2c[nH]c3ccccc23)NC(=O)OCc2ccccc2)c1 (stereo not given) | 59.7 | 34.7 | 12.2 | 21.5
5 | CCOC1SC(SC)=NN1C(=O)C(OC(C)=O)C(OC(C)=O)C(OC(C)=O)C(OC(C)=O)C(=O)N1N=C(SC)SC1OCC (stereo not given) | > 100 | > 100 | > 100 | > 100
6 | CC1(C)OC(=S)N(c2ccccc2)C12C=Cc1cc3ccccc3cc1O2 (stereo not given) | > 100 | > 100 | > 100 | 
7 | CCOP(C)(=O)C(Nc1ccc(F)cc1)c1ccc(F)cc1 (stereo not given) | > 100 | > 100 | > 100 | > 100
8 | CC(=O)OCc1cn(S(=O)(=O)c2ccc(C)cc2)cn1 | > 100 | > 100 | > 100 | > 100
9 | Cn1cnc([N+](=O)[O-])c1Sc1nc(N)nc2c1ncn2Cc1ccccc1 | 31.4 | 69 | > 100 | 
10 | CC1Cc2cc(O)ccc2C2[C@@H]1C1CC[C@H](O)[C@@]1(C)C[C@@H]2O[N+](=O)[O-] (stereo not given in full) | 44 | 64.1 | 41.9 | 18.9
11 | O=C1C[C@H]2[C@H](c3ccc(Br)cc3)[C@H]3C(=O)c4ccccc4NC(=O)[C@@H]3[C@@]2(O)c2ccccc2N1 | 61.5 | 29 | 53.3 | 54.7
12 | CC(=O)Nc1ccc(-c2nc3ccccc3s2)cc1O | 83.1 | > 100 | > 100 | 
13 | COc1cc(OC)nc(Nc2c(C#N)c3nc4ccccc4n3c3ccccc23)n1 | > 100 | > 100 | > 100 | 35.1
14 | N#CC(c1cc(Cl)ncn1)c1nc2ccccc2s1 (stereo not given) |  | 33.6 |  | 50.5
15 | O=C1NN(c2ccccc2)C(=O)C2C3c4ccccc4C(c4ccccc43)C12 (stereo not given) | > 100 | > 100 | > 100 | > 100
16 | Cc1nn(C)c2c1C(=O)N(C)CC(=O)N2C | > 100 | > 100 | > 100 | > 100
17 | O=C(O)c1cc(Sc2ccc([N+](=O)[O-])c(C(=O)O)c2)ccc1[N+](=O)[O-] | > 100 | > 100 | > 100 | > 100
18 | COc1cccc(-n2c(N)c(-c3nc4cc(C(F)(F)F)ccc4s3)c3ccc([N+](=O)[O-])cc3c2=O)c1 | > 100 | > 100 |  | 
19 | CCCCCCCC/C=C/CCCCCCCC1CC(O)C(=O)O1 (stereo not given) | > 100 | > 100 | > 100 | 
20 | CC(=O)O[C@H]1[C@@H](N2CCN(C)CC2)C[C@H]2[C@@H]3CC=C4C[C@@H](N5CCCC5)CC[C@]4(C)[C@H]3CC[C@@]21C | > 100 | 34.5 | > 100 | 29.3
21 | CC(NC(=O)C(N)CC(=O)O)NC(=O)N1CCCC1 (stereo not given) | > 100 | > 100 | > 100 | > 100
22 | COC(=O)CCC(=O)c1ccc2c(c1)CC1(C2)Cc2ccc3c(c2C1)CCCC3=O (stereo not given) | > 100 | > 57 | 11 | 42.6
23 | Cc1cc(-c2nc3cc(F)c(F)cc3s2)ccc1N | > 100 | > 100 | > 100 | 
24 | CCCCOC(=O)C1CN2C(=NC1(C(F)(F)F)C(F)(F)F)Sc1ccccc12 (stereo not given) | > 100 | > 100 | > 100 | > 100
25 | COC(=O)c1scc(N)c1-n1ccc(=O)[nH]c1=O | > 100 | > 100 | > 100 | > 100
26 | COC1(C)C=NCC(C)(C)NC(=O)C(C)(OC)C=NCC(C)(C)NC1=O (stereo not given) | > 10 | > 10 | > 10 | > 10
27 | CC(C)(C)NC1C2CCC(C)(C1O)C2(C)C (stereo not given) | 12.5 | > 100 |  | > 100

Row | SMILES | TGI [1] [µM] | TGI [2] [µM] | TGI [3] [µM] | TGI [4] [µM]
28 | Cc1nc(C)c(N2CCN(C#N)CC2)c(=O)[nH]1 | > 100 | > 100 | > 100 | > 100
29 | O=C1OC(c2ccccc2)N/C1=C\c1ccc2c(c1)OCO2 (stereo not given) | > 100 | > 100 | 99.6 | > 31.6
30 | CCNc1ncnc2n[nH]nc12 | > 100 | > 100 | > 100 | > 100
31 | CCOC(=O)C1(Cc2ccccc2)Cc2ccccc2C1=O (stereo not given) | 81.7 | 40.9 | 95.5 | 96.2
32 | COc1cc(/C=C(\C#N)c2ccccn2)cc(Br)c1O | > 100 | > 100 | > 100 | > 100
33 | CC(C)=CCC[C@H](C)[C@H]1CC[C@@H](C)c2cc(O)c(C)cc21 | 27.9 | 33.9 | 68 | 33.8
34 | O=C(/C(=C/c1cccs1)c1ccccc1)c1ccccc1 | > 100 | > 100 | > 100 | 87.6
35 | CC1(C)CC[C@]2(C(=O)O)CC[C@]3(C)C(=CC[C@@H]4[C@@]5(C)CC[C@H](OC6OC(CO)C(O)C(O)C6OC6OC(CO)C(O)C(O)C6O)C(C)(C)[C@@H]5CC[C@]43C)[C@@H]2C1 (stereo not given in full) | 34.2 | 31.2 | 46.5 | 
36 | CCn1cnc2c(NC(C)=O)ncnc21 | > 100 | > 100 | > 100 | > 100
37 | O=C(N/C(=C\c1ccccc1)C1Nc2ccccc2C(=O)O1)c1ccccc1 (stereo not given) | > 100 | 52.1 | 46.5 | 43.7
38 | Cc1cccc(NC(=S)N/N=C(/c2ccccc2)c2ccccn2)c1 | 15.5 | 2.58 | 1.48 | 12.8
39 | COc1ccc(-c2nnc(CCCCCCCCc3nnc(-c4ccc(OC)cc4)o3)o2)cc1 |  | > 100 | > 100 | > 100
40 | CCN(CC)c1nc(N(C)C)c2cc(OC)ccc2n1 | > 100 | > 100 |  | 55.5
41 | CC(=O)OC1COC(Nn2c(=O)[nH]c3ccccc3c2=O)C(OC(C)=O)C1OC(C)=O (stereo not given) | > 100 | > 100 | > 100 | > 100
42 | CN1CCN(c2ccc(-n3cc(C(=O)O)c(=O)c4cc(F)c(N5CCN(C)CC5)cc43)nc2)CC1 | > 100 | > 100 | > 100 | > 100
43 | NC(CCCCNC(=O)C(Cc1ccccc1)NC(=O)OCc1ccccc1)C(=O)NC(CCCCNC(=O)C(Cc1ccccc1)NC(=O)OCc1ccccc1)C(=O)NC(CCCCNC(=O)C(Cc1ccccc1)NC(=O)OCc1ccccc1)C(=O)NC(CCCCNC(=O)C(Cc1ccccc1)NC(=O)OCc1ccccc1)C(=O)NC(CCCCNC(=O)C(Cc1ccccc1)NC(=O)OCc1ccccc1)C(=O)NC(CCCCNC(=O)C(Cc1ccccc1)NC(=O)OCc1ccccc1)C(=O)O (stereo not given) | > 100 | > 100 | > 100 | 
44 | Cc1n[nH]c(=O)n1N1C(=O)c2ccccc2C1=O | > 100 | > 100 | > 100 | > 100
45 | CN(C(=O)c1cccs1)C(=S)N1CCN(c2ccccc2)CC1 | > 100 | > 100 | > 100 | 
46 | [N-]=[N+]=NC1=C(c2ccccc2)C(=O)c2cccc3cccc1c23 | 34.9 | > 100 | > 100 | 91.1
47 | Cc1c2cccc-2c(OCCO)cc2c1[nH]c1ccccc12 | 8.71 | 4.36 | > 29.6 | 3.5
48 | CC1(C)C2CCC1(CC(=O)O)C(Cl)C2 (stereo not given) | > 100 | > 100 | > 100 | > 100
49 | C[C@@H]1OC(=O)/C(=C\N(C)C)[C@H]2CC(=O)N(CCc3cn(S(=O)(=O)C(F)(F)F)c4ccccc34)C[C@H]12 |  | > 100 |  | > 100
50 | CCOC(=O)c1cc(-c2ccc(Cl)cc2)c([N+](=O)[O-])n1C |  | > 10 | > 10 | > 10
51 | Cc1nc2c(ncn2CCO)c(=O)[nH]1 | > 100 | > 100 | > 100 | > 100
52 | N=c1oc2c(Cl)cc(Cl)cc2cc1C(=O)Nc1ccccn1 | 61.4 | > 100 | > 100 | > 100
53 | C=C(C(=O)O)[C@@H]1C[C@@H]2O[C@H]1CC(C)=CCC/C(C)=C/CC[C@@]2(C)O | > 100 | > 100 | > 100 | > 100
54 | c1ccc2c(c1)C(=Nc1ccc(N=C3c4ccccc4-c4ccccc43)cc1)c1ccccc1-2 | > 100 | > 100 | > 100 | 

— PubChem BioAssay (NCI)
